Assay results published in US8492589B2, “Alkynyl phenyl derivative compounds for treating ophthalmic diseases and disorders” (Acucela Inc., priority 2007, dated 2013).
Like-named read-outs stand apart in the source and are kept apart here.

Molecular target: T1, isomerase (Mus musculus, UniProt Q91ZQ5)
T1 construct: The recovery of 11-cis-retinal after bleaching can be used to estimate the activity of isomerase in vivo; from tissue; host or cells: eyes of living CD-1 and Balb/c male mice
T1 sequence (Q91ZQ5 1-533): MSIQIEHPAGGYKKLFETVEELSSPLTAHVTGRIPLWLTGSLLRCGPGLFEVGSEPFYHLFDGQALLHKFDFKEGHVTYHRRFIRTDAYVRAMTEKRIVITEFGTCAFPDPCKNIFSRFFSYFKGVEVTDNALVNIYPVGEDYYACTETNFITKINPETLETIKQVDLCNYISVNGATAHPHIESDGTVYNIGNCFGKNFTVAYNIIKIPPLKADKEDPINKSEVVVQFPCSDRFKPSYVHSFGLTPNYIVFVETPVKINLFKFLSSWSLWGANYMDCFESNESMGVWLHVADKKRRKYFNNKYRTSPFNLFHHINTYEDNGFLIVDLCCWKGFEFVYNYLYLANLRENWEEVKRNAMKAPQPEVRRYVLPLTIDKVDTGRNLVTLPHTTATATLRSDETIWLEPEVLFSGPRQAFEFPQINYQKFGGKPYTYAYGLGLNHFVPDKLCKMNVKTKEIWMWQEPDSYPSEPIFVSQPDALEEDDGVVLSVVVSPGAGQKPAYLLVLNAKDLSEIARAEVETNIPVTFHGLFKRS
Experiment: In vivo murine isomerase assay (recovery of 11-cis-retinal after photobleaching)
Set-up: species or system mice
Conditions: for isomerase inhibitory activity / inhibition at 1 mg/kg / inhibition at 5 mg/kg: CD1 male mice; for inhibition at 1 mg/kg / inhibition at 5 mg/kg / inhibition in vivo at 1 mg/kg / ED50 / inhibition in vivo at 5 mg/kg: mouse; for inhibition at 1 mg/kg / inhibition at 5 mg/kg / ED50: po; for inhibition in vivo at 1 mg/kg / inhibition in vivo at 5 mg/kg: read-out: % Inibition; for ED50: read-out: ED50 (dose of compound that gives 50% inhibition of 11-cis retinal (oxime) recovery), estimated, male Balb/c mice, HCl salts dosed orally in mg/kg; for ED50 / inhibition of isomerase activity in vivo (figure legend): photobleached 4 hours after dosing; for inhibition of isomerase activity in vivo (figure legend): oral dose response, Balb/c mice
Procedure: The capability of alkynyl phenyl-linked amine derivatives to inhibit isomerase is determined by an in vivo murine isomerase assay. Brief exposure of the eye to intense light (“photobleaching” of the visual pigment or simply “bleaching”) is known to photo-isomerize almost all 11-cis-retinal in the retina. The recovery of 11-cis-retinal after bleaching can be used to estimate the activity of isomerase in vivo. Delayed recovery, as represented by lower 11-cis-retinal oxime levels, indicates inhibition of isomerization reaction. Procedures were performed essentially as described by Golczak et al., Proc. Natl. Acad. Sci. […] See also Deigner et al., Science, 244: 968-71 (1989); […] Parish, et al., Proc. Natl. Acad. Sci. USA, 14609-13 (1998); […] Six-week old dark-adapted CD-1 (albino) male mice were orally gavaged with compound (0.03-3 mg/kg) dissolved in 100 μl corn oil containing 10% ethanol (five animals per group). […] After 2-24 hours in the dark, the mice were exposed to photobleaching of 5,000 lux of white light for 10 minutes. The mice were allowed to recover 2 hours in the dark. The animals were then sacrificed by carbon dioxide inhalation. Retinoids were extracted from the eye and the regeneration of 11-cis-retinal was assessed at various time intervals. All steps were performed in darkness with minimal redlight illumination (low light darkroom lights and […] flashlights for spot illumination as needed) (see, e.g., Maeda et al., J. Neurochem 85:944-956, 2003; Van Hooser et al., J Biol Chem 277:19173-82, 2002). After the mice were sacrificed, the eyes were immediately removed and placed in liquid nitrogen for storage. The eyes were placed in 500 μL of bis-tris propane buffer (10 mM, pH 7.3) and 20 μL of 0.8M hydroxile amine (pH-7.3). The eyes were cut up into small pieces with small iris scissors and then thoroughly homogenized at 30000 rpm with a mechanical homogenizer (Polytron PT 1300 D) in the tube until no visible tissue remained. 500 μL of methanol and 500 μL of heptane were added to each tube. The tubes were attached to a vortexer so that the contents were mixed thoroughly for 15 minutes in room temperature. […] The samples were analyzed on an Agilent 1100 HPLC system with normal phase column: SILICA (Beckman Coutlier, dp 5 μm, […]). The running method has a flow rate of 1.5 ml/min; solvent components are 15% solvent 1 (1% isopropanol in ethyl acetate), and 85% solvent 2 (100% hexanes). Loading volume for each sample is 100 μl; detection wavelength is 360 nm. The area under the curve for 11-cis retinal oxime was calculated by Agilent Chemstation software and was recorded manually. Data processing was performed using Prizm software. Positive control mice (no compound administered) were sacrificed fully dark-adapted and the eye retinoids analyzed. Light (bleached) control mice (no compound administered) were sacrificed and retinoids isolated and analyzed immediately after light treatment. […] Animals that received Compound 19 HCl were orally dosed with 0.01 and 1 mg/kg of compound in sterile water as solution, and photobleached 4 hours after dosing. Recovery and retinoid analysis were performed as described above. Dark control mice were vehicle-only treated, sacrificed fully dark adapted without light treatment, and analyzed. […] A time course study was performed to determine the isomerase inhibitory activity of Compounds 2, 18 and 19. Male Balb/c mice (4/group) received 3 mg Compound 2-HCl, Compound 18-HCl or Compound 19-HCl (in water) per kg bodyweight orally, by gavage. The animals were then “photo-bleached” (5000 Lux white light for 10 minutes) at 2, 4, 8, 16 and 24 hours after dosing, and returned to darkness to allow recovery of the 11-cis-retinal content of the eyes. Mice were sacrificed 2 hours after bleaching, eyes were enucleated, and retinoid content was analyzed by HPLC. A single dose study of the compound of Example 36 (Compound 36) was performed, at 1 mg/kg and 5 mg/kg oral dosing, 2, 4, 6, and 24 hours post bleaching. […]

Row | Compound | inhibition in vivo at 1 mg/kg (4 h) [%] | inhibition in vivo at 1 mg/kg (24 h) [%] | also measured
1 | COc1ccccc1C#Cc1cccc(CCCN)c1 [Example 36, 3-(3-((2-Methoxyphenyl)Ethynyl)Phenyl)Propan-1-Amine] | – | – | isomerase inhibitory activity (1 mg/kg single oral dose): inactive; isomerase inhibitory activity (5 mg/kg single oral dose, at 24 h): full recovery; inhibition at 1 mg/kg (1 mg/kg single oral dose, 2 h): 6%; inhibition at 1 mg/kg (1 mg/kg single oral dose, 6 h): 5%; inhibition at 1 mg/kg (1 mg/kg single oral dose, 24 h): 0%; inhibition at 5 mg/kg (5 mg/kg single oral dose, 2 h): 46%; inhibition at 5 mg/kg (5 mg/kg single oral dose, 6 h): 45%; inhibition at 5 mg/kg (5 mg/kg single oral dose, 24 h): 0%
2 | NCCOc1cccc(C#CC2(O)CCCCCC2)c1 [Example 78, 1-((3-(2-aminoethoxy)phenyl)ethynyl)-cycloheptanol] | 0 | 0 | –
3 | NCCOc1cccc(C#CC2(O)CCCC2)c1 [Example 31, 1-((3-(2-Aminoethoxy)phenyl)ethynyl)cyclopentanol] | 18 | 0 | –
4 | NCCC(O)c1cccc(C#CCCO)c1 (stereo not shown) [Example 51, 4-(3-(3-Amino-1-hydroxypropyl)phenyl)but-3-yn-1-ol] | 0 | 0 | –
5 | NCCC(O)c1cccc(C#CC2CCCC2)c1 (stereo not shown) [Example 47, 3-Amino-1-(3-(cyclopentylethynyl)phenyl)propan-1-ol] | 100 | 2 | –
6 | NCCC(O)c1cccc(C#CC2(O)CCCCC2)c1 (stereo not shown) [Example 99, 1-((3-(3-Amino-1-hydroxypropyl)phenyl)ethynyl)cyclohexanol] | 31 | 0 | –
7 | CCCC(O)(C#Cc1cccc(C(O)CCN)c1)CCC (stereo not shown) [Example 19, 4-((3-(3-Amino-1-hydroxypropyl)phenyl)ethynyl)heptan-4-ol] | – | – | ED50: 0.33 mg/kg; inhibition of isomerase activity in vivo (figure legend): concentration-dependent inhibition
8 | NCCOc1cccc(C#CC2(O)CCCCC2)c1 [Example 57, 1-((3-(2-Aminoethoxy)phenyl)ethynyl)cyclohexanol] | 8 | 21 | –
9 | CCCC(O)C#Cc1cccc(CCCN)c1 (stereo not shown) [Example 8, 1-(3-(3-Aminopropyl)phenyl)hex-1-yn-3-ol] | – | – | inhibition in vivo at 5 mg/kg (4 h): 0%; inhibition in vivo at 5 mg/kg (24 h): 0%
10 | NCCOc1cccc(C#CCCCCO)c1 [Example 74, 6-(3-(2-Aminoethoxy)phenyl)hex-5-yn-1-ol] | 8 | 0 | –
11 | NCCC(O)c1cccc(C#CC2(O)CCCCCC2)c1 (stereo not shown) [Example 59, 1-((3-(3-Amino-1-hydroxypropyl)phenyl)ethynyl)cycloheptanol] | 31 | 0 | –
12 | NCCC(O)c1cccc(C#CCCc2ccccc2)c1 (stereo not shown) [Example 69, 3-Amino-1-(3-(4-phenylbut-1-ynyl)phenyl)propan-1-ol] | 81 | 10 | –
13 | COc1ccccc1C#Cc1cccc(C(O)CCN)c1 (stereo not shown) [Example 54, 3-Amino-1-(3-((2-Methoxyphenyl)Ethynyl)Phenyl)Propan-1-ol] | 67 | 58 | –
14 | NCCOc1cccc(C#Cc2ccccc2)c1 [Example 81, 2-(3-(Phenylethynyl)phenoxy)-ethanamine] | 8 | 3 | –
15 | CCCC(O)(C#Cc1cccc([C@H](O)CCN)c1)CCC [Compound 100, (R)-4-((3-(3-Amino-1-Hydroxypropyl)Phenyl)Ethynyl)Heptan-4-ol] | – | – | ED50: 0.2 mg/kg; inhibition of isomerase activity in vivo (figure legend): concentration-dependent inhibition
16 | CCCC(O)(C#Cc1cccc(CCCN)c1)CCC [Example 2, 4-((3-(3-Aminopropyl)phenyl)ethynyl)heptan-4-ol] | – | – | ED50: 0.69 mg/kg; inhibition of isomerase activity in vivo (figure legend): concentration-dependent inhibition
17 | NCCOc1cccc(C#CC2CCCC2)c1 [Example 79, 2-(3-(Cyclopentylethynyl)phenoxy)-ethanamine] | 7 | 1 | –

Continued, in another order:

Row | inhibition in vivo at 1 mg/kg (4 h) [%] | inhibition in vivo at 1 mg/kg (24 h) [%] | Compound | also measured
18 | 3 | 0 | CCC(O)(C#Cc1cccc(CCCN)c1)CC [Example 1, 1-(3-(3-Aminopropyl)phenyl)-3-ethylpent-1-yn-3-ol] | –
19 | 11 | 0 | NCCCc1cccc(C#Cc2ccncc2)c1 [Example 63, 3-(3-(Pyridin-4-ylethynyl)phenyl)propan-1-amine] | –
20 | 75 | 14 | CC(C)C(O)(C#Cc1cccc(CCCN)c1)C(C)C [Example 32, 1-(3-(3-Aminopropyl)phenyl)-3-isopropyl-4-methylpent-1-yn-3-ol] | –
21 | 21 | 0 | CCCC(C#Cc1cccc(CCCN)c1)(CCC)OC [Example 4, 3-(3-(3-Methoxy-3-propylhex-1-ynyl)phenyl)propan-1-amine] | inhibition in vivo at 5 mg/kg (4 h): 95%; inhibition in vivo at 5 mg/kg (24 h): 0%
22 | 27 | 0 | CC(C)C(O)(C#Cc1cccc(OCCN)c1)C(C)C [Example 28, 1-(3-(2-Aminoethoxy)phenyl)-3-isopropyl-4-methylpent-1-yn-3-ol] | –
